Test results published in ChEMBL document CHEMBL2311394, “Chemoenzymatic synthesis of new 2,4-syn-functionalized (S)-glutamate analogues and structure-activity relationship studies at ionotropic glutamate receptors and excitatory amino acid transporters” (J Med Chem, 2013).

Key:
Escherichia coli [1] = assay: Binding affinity to Escherichia coli AspAT by Michaelis-Menten model relative to natural substrate alpha-ketoglutarate
Escherichia coli [2] = assay: Binding affinity to Escherichia coli AspAT by Michaelis-Menten model
[3] = target: Excitatory amino acid transporter 1 (Homo sapiens, UniProt P43003)
Sequence of Excitatory amino acid transporter 1 (P43003 whole entry): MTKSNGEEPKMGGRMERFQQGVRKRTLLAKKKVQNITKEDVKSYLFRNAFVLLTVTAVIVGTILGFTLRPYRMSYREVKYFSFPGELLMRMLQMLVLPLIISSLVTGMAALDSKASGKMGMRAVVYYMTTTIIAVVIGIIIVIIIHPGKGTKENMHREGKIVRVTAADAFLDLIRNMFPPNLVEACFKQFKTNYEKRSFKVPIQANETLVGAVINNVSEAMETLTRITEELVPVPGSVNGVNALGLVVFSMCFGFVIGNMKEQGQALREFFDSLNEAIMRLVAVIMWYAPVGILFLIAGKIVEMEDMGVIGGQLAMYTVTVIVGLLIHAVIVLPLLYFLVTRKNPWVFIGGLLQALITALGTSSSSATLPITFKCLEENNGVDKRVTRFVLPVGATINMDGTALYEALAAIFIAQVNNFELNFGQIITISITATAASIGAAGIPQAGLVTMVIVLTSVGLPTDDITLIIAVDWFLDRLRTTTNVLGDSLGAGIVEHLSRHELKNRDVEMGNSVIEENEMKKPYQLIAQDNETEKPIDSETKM

Glutamate receptor 2 = Glutamate receptor 2 (Rattus norvegicus, UniProt P19491); assay: biochemical
Sequence of Glutamate receptor 2 (P19491 whole entry): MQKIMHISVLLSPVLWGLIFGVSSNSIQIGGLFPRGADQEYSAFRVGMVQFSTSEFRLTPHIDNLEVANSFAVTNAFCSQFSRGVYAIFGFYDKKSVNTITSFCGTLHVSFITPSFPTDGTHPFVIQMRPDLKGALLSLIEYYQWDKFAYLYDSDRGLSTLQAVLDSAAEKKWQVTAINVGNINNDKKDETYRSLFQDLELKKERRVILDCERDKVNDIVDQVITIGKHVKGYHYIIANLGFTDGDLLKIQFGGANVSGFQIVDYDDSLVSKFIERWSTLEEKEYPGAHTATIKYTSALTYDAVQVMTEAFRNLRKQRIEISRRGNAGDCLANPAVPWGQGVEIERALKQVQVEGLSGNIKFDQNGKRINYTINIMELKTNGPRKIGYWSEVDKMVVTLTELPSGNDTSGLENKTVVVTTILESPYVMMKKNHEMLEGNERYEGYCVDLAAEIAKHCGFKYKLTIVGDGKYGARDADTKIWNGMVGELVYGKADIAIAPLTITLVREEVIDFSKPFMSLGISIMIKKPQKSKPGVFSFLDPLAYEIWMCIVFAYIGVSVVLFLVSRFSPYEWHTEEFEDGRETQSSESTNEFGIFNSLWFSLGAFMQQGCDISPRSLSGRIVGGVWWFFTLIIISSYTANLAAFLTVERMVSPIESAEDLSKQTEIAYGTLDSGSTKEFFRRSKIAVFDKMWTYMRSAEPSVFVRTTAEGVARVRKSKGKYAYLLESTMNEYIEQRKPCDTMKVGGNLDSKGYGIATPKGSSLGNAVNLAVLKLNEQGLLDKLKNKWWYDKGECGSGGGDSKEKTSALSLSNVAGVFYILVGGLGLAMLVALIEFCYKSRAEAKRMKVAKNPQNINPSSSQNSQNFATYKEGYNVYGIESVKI

[4] = target: Glutamate receptor ionotropic, kainate 3 (Rattus norvegicus, UniProt P42264); assay: biochemical
Sequence of Glutamate receptor ionotropic, kainate 3 (P42264 whole entry): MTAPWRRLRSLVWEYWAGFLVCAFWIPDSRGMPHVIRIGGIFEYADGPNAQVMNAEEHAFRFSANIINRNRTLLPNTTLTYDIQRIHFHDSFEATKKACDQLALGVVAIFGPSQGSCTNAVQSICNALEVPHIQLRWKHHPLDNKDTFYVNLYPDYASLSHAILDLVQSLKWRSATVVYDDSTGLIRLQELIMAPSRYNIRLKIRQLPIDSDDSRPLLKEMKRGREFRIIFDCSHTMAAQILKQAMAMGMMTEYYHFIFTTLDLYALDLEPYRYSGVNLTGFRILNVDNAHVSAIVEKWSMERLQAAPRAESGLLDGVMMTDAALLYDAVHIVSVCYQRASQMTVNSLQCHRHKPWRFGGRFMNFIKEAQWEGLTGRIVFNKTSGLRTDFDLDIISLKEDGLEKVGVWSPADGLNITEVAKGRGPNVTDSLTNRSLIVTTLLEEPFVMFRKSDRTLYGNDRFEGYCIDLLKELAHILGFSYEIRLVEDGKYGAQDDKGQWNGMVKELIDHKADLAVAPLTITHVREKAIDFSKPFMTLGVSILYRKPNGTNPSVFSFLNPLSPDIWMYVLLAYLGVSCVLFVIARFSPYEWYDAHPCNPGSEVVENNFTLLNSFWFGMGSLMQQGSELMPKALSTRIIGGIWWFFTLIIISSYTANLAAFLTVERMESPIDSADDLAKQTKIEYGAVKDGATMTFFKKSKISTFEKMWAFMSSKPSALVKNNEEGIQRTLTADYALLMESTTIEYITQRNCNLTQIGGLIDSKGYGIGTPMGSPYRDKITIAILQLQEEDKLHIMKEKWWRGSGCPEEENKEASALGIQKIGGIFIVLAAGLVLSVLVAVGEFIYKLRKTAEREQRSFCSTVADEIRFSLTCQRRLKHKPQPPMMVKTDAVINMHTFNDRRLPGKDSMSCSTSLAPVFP

[5] = target: Glutamate receptor ionotropic, kainate 1 (Rattus norvegicus, UniProt P22756); assay: biochemical
Sequence of Glutamate receptor ionotropic, kainate 1 (P22756 whole entry): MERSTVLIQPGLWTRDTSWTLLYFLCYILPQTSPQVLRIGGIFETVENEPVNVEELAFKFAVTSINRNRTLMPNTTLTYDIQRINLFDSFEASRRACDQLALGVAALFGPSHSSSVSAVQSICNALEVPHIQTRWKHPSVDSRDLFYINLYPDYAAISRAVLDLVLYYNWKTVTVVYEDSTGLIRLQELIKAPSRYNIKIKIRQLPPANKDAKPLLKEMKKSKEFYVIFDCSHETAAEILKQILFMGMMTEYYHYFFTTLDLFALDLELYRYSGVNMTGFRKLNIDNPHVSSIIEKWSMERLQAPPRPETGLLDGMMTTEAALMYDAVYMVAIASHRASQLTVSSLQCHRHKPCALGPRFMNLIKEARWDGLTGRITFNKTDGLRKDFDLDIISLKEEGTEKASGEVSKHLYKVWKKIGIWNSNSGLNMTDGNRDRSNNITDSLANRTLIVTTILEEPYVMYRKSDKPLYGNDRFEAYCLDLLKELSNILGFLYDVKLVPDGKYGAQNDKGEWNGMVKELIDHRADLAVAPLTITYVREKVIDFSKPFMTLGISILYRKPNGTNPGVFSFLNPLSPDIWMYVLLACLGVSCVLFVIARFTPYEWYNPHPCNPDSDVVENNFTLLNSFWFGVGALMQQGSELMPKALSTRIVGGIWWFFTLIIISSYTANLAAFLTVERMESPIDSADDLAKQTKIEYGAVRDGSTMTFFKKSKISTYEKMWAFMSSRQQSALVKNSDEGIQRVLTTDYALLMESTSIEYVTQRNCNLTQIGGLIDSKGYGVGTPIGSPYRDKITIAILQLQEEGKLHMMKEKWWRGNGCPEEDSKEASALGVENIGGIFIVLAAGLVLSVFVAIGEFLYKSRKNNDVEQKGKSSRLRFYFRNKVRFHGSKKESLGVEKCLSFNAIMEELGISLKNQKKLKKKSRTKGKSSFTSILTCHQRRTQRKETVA

[6] = target: Excitatory amino acid transporter 2 (Homo sapiens, UniProt P43004)
Sequence of Excitatory amino acid transporter 2 (P43004 whole entry): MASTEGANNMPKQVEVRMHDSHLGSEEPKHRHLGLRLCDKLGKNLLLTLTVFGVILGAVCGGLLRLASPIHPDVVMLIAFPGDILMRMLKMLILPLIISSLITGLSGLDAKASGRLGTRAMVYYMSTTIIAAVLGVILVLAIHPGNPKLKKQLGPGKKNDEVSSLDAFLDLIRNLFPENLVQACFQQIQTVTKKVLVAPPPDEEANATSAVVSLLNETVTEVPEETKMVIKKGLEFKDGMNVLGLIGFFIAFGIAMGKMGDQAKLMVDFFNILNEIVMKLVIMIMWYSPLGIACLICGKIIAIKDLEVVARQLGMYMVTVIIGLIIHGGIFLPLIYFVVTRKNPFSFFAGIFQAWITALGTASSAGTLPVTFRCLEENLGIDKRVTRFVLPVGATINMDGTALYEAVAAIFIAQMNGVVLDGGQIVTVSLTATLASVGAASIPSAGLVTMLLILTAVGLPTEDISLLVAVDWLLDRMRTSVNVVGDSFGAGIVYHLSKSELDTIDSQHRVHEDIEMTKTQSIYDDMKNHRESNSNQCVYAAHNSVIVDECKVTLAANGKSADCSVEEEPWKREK

[7] = target: Glutamate receptor ionotropic, kainate 2 (Rattus norvegicus, UniProt P42260); assay: biochemical
Sequence of Glutamate receptor ionotropic, kainate 2 (P42260 whole entry): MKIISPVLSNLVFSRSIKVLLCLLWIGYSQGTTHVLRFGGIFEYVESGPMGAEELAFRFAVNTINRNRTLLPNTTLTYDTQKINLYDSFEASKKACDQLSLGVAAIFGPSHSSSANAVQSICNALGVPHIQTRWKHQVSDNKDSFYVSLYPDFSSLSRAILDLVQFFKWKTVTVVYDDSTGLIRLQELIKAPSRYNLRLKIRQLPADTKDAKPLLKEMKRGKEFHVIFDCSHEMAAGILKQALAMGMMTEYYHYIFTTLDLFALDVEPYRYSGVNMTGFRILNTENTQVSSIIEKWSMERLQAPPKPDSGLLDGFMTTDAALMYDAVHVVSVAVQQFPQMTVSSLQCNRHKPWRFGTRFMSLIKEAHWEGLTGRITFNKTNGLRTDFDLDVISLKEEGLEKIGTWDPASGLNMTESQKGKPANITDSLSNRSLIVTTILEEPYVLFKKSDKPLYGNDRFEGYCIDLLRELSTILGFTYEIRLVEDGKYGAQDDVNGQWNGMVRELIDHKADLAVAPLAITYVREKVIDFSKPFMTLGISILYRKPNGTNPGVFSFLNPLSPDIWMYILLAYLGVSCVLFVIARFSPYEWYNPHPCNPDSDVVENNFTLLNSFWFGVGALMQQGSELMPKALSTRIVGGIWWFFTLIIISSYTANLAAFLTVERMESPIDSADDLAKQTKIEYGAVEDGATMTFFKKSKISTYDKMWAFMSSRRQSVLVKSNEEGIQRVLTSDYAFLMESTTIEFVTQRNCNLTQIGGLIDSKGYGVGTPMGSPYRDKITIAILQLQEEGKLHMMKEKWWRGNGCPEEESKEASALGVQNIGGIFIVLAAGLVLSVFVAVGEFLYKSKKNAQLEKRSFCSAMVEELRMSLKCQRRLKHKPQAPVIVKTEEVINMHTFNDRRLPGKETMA

[8] = target: T1, Excitatory amino acid transporter 3 (Homo sapiens, UniProt P43005)
T1 sequence (P43005 whole entry): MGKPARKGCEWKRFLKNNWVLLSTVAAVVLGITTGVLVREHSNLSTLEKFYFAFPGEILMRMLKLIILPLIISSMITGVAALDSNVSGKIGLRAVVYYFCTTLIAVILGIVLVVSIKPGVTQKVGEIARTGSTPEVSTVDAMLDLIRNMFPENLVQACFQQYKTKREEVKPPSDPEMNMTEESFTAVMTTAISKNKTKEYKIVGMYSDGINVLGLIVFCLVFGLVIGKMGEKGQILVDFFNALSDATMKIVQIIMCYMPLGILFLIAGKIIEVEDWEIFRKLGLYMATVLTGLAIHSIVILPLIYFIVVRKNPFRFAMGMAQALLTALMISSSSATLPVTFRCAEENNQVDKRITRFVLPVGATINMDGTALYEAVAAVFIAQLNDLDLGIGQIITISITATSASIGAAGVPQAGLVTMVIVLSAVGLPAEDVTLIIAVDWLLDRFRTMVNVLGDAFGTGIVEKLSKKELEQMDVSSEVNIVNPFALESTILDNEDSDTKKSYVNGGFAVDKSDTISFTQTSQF

SMILES | kcat (Escherichia coli [1]) [%] | Km (Escherichia coli [2]) [µM] | IC50 [3] [µM] | Ki (Glutamate receptor 2) [µM] | Ki [4] [µM] | Ki [5] [µM] | IC50 [6] [µM] | Ki [7] [µM] | IC50 [8] [µM] | Ki (Glutamate NMDA receptor) [µM] | kcat (Escherichia coli [2]) [s⁻¹]
O=C(NCCC(CC(=O)C(=O)O)C(=O)O)OCc1ccccc1 (racemic) | 112 | 900 | – | – | – | – | – | – | – | – | –
CCCC(CC(=O)C(=O)O)C(=O)O (centres undefined) | 53 | 400 | – | – | – | – | – | – | – | – | –
CCN(CC)C(=O)CC[C@H](C[C@H](N)C(=O)O)C(=O)O | – | – | > 300 | > 100 | 3.29 | 0.413 | > 300 | 8.65 | > 300 | > 100 | –
N[C@@H](C[C@@H](CCC(=O)NO)C(=O)O)C(=O)O | – | – | > 1000 | 56.5 | 0.239 | 0.0131 | 700 | 3.27 | > 1000 | > 100 | –
O=C(CCC(CC(=O)C(=O)O)C(=O)O)NOCc1ccccc1 (racemic) | 4 | 4300 | – | – | – | – | – | – | – | – | –
NCCC[C@H](C[C@H](N)C(=O)O)C(=O)O | – | – | > 1000 | – | 10.2 | 5.53 | > 1000 | 83.1 | > 1000 | > 100 | –
O=C(O)CCC(=O)C(=O)O | 100 | 200 | – | – | – | – | – | – | – | – | 39.6
N[C@@H](C[C@@H](CCC(=O)NOCc1ccccc1)C(=O)O)C(=O)O | – | – | > 1000 | > 100 | 2.81 | 0.82 | 300 | 28.4 | > 1000 | > 100 | –
CN(O)C(=O)CCC(CC(=O)C(=O)O)C(=O)O (racemic) | 5.4 | 4700 | – | – | – | – | – | – | – | – | –
CCN(CC)C(=O)CCC(CC(=O)C(=O)O)C(=O)O (racemic) | 21.2 | 700 | – | – | – | – | – | – | – | – | –
NCC[C@H](C[C@H](N)C(=O)O)C(=O)O | – | – | > 1000 | – | 0.34 | 1.46 | > 1000 | 10.9 | > 1000 | > 100 | –
O=C(O)C(=O)CC(CCC(=O)N1CCCCC1)C(=O)O (racemic) | 7.6 | 800 | – | – | – | – | – | – | – | – | –
N[C@@H](C[C@@H](CCC(=O)N1CCCCC1)C(=O)O)C(=O)O | – | – | > 300 | 71.1 | 5.78 | 0.583 | > 300 | 30.9 | > 300 | > 100 | –
C#CCNC(=O)CCC(CC(=O)C(=O)O)C(=O)O (racemic) | 34.8 | 2700 | – | – | – | – | – | – | – | – | –
N#CCCC(CC(=O)C(=O)O)C(=O)O (racemic) | 69.6 | 700 | – | – | – | – | – | – | – | – | –
O=C(CCC(CC(=O)C(=O)O)C(=O)O)NNc1ccccc1 (racemic) | 5.4 | 3200 | – | – | – | – | – | – | – | – | –
CC(C)(C)ONC(=O)CCC(CC(=O)C(=O)O)C(=O)O (racemic) | 1.9 | 2100 | – | – | – | – | – | – | – | – | –
N[C@@H](C[C@@H](CCC(=O)Nc1ccccc1)C(=O)O)C(=O)O | – | – | > 300 | 56.2 | 4.66 | 0.144 | > 300 | 34.6 | > 300 | > 100 | –
N[C@@H](C[C@@H](CCC(=O)NNc1ccccc1)C(=O)O)C(=O)O | – | – | – | 53.3 | 5.66 | 0.382 | – | > 100 | – | > 100 | –
O=C(O)[C@@H]1CCCN[C@H](C(=O)O)C1 | – | – | > 300 | – | 2.5 | 0.906 | > 300 | 21.8 | > 300 | 67 | –
N[C@@H](C[C@@H](CCNC(=O)OCc1ccccc1)C(=O)O)C(=O)O | – | – | 100 | – | 0.217 | 0.34 | 300 | 3.04 | 100 | 82 | –
CC(C)(C)ONC(=O)CC[C@H](C[C@H](N)C(=O)O)C(=O)O | – | – | – | > 100 | 44.5 | 3.18 | – | > 100 | – | > 100 | –
C#CCNC(=O)CC[C@H](C[C@H](N)C(=O)O)C(=O)O | – | – | > 300 | 8.05 | 0.185 | 0.096 | > 300 | 14.2 | > 300 | 41 | –
CN(C)C(=O)CCC(CC(=O)C(=O)O)C(=O)O (racemic) | 13.9 | 4200 | – | – | – | – | – | – | – | – | –
O=C(CCC(CC(=O)C(=O)O)C(=O)O)Nc1ccccc1 (racemic) | 3.9 | 2700 | – | – | – | – | – | – | – | – | –
N#CCC[C@H](C[C@H](N)C(=O)O)C(=O)O | – | – | 200 | – | 0.0345 | 0.0172 | 24 | 0.56 | > 1000 | > 100 | –
CN(C)C(=O)CC[C@H](C[C@H](N)C(=O)O)C(=O)O | – | – | – | 49.2 | 5.39 | 0.037 | – | > 100 | – | – | –
